# Literature values in patent US10227338B2, “Substituted benzenesulfonamides as sodium channel blockers” (Daewoong Pharmaceutical Co., Ltd., priority 2015, dated 2019).
# System: neuropathic pain
smiles,measurement,value
NCC1(CC(=O)O)CCCCC1 [gabapentin],effective for % of the patients,60%
